Assay results from patent US10016438B2, “Bicyclic heterocycles as FGFR4 inhibitors” (Incyte Corporation, priority 2015, dated 2018).

Molecular target: FGFR4 (Homo sapiens (Human), UniProt P22455)
Assay: FGFR Enzymatic Assay (FRET peptide phosphorylation), FGFR4
Settings: IC50 ratio showing FGFR4 selectivity
[1] = pre-incubated for 5 to 10 minutes

FGFR4, sequence (P22455 22-802): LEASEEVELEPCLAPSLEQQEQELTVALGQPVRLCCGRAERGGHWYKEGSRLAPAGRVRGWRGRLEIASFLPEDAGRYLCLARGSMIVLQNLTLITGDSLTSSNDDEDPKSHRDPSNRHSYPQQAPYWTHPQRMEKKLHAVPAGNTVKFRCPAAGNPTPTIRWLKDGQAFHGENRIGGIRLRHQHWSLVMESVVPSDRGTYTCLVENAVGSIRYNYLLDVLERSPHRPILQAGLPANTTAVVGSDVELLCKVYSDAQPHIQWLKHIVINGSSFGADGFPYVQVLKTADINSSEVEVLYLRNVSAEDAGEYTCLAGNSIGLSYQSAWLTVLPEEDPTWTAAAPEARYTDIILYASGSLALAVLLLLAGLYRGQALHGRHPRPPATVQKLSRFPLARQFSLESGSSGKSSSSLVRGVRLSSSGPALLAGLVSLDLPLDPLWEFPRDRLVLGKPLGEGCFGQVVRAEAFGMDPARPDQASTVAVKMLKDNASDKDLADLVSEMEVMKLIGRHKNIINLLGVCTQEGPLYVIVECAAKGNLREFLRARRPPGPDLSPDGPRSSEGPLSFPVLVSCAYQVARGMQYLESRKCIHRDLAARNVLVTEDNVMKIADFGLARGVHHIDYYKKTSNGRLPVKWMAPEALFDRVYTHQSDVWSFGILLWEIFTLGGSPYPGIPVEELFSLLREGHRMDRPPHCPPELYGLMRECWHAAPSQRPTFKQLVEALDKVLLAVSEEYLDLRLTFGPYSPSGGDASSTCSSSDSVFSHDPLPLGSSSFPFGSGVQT
Text: The enzymes were purchased from Millipore or Invitrogen.
GraphPad prism3 was used to analyze the data. The IC50 values were derived by fitting the data to the equation for a sigmoidal dose-response with a variable slope. Y=Bottom+(Top−Bottom)/(1+10^((Log IC50−X)*HillSlope)) where X is the logarithm of concentration and Y is the response.

Row | SMILES | FGFR1/FGFR4 [1] | FGFR2/FGFR4 [1] | FGFR3/FGFR4 [1] | FGFR1/FGFR4 (pre-incubated for 4 hours) | FGFR2/FGFR4 (pre-incubated for 4 hours) | FGFR3/FGFR4 (pre-incubated for 4 hours)
1 | C=CC(=O)Nc1ccc(C)c(-c2cc3c(cn2)CN(c2c(F)c(OC)cc(OC)c2F)C(=O)C32CC2)c1 [Example 2, N-(3-(2′-(2,6-difluoro-3,5-dimethoxyphenyl)-3′-oxo-2′,3′-dihydro-1′H-spiro[cyclopropane-1,4′-[2,7]naphthyridine]-6′-yl)-4-methylphenyl)acrylamide] | >100 | >100 | >100 | >100 | >100 | >100
2 | C=CC(=O)Nc1ccc(C#N)c(-c2cc3c(cn2)CN(c2c(F)c(OC)cc(OC)c2F)C(=O)C32CC2)c1 [Example 5, N-(4-cyano-3-(2′-(2,6-difluoro-3,5-dimethoxyphenyl)-3′-oxo-2′,3′-dihydro-1′H-spiro[cyclopropane-1,4′-[2,7]naphthyridine]-6′-yl)phenyl)acrylamide] | >100 | >100 | >100 | >100 | >100 | >100
3 | C=CC(=O)Nc1cc(-c2cc3c(cn2)CN(c2c(F)c(OC)cc(OC)c2F)C(=O)C32CC2)c(C)cc1F [Example 6, N-(5-(2′-(2,6-difluoro-3,5-dimethoxyphenyl)-3′-oxo-2′,3′-dihydro-1′H-spiro[cyclopropane-1,4′-[2,7]naphthyridine]-6′-yl)-2-fluoro-4-methylphenyl)acrylamide] | >100 | >100 | >100 | >100 | >100 | >100
4 | C=CC(=O)Nc1cnc(C)c(-c2cc3c(cn2)CN(c2c(F)c(OC)cc(OC)c2F)C(=O)C32CC2)c1 [Example 7, N-(5-(2′-(2,6-difluoro-3,5-dimethoxyphenyl)-3′-oxo-2′,3′-dihydro-1′H-spiro[cyclopropane-1,4′-[2,7]naphthyridine]-6′-yl)-6-methylpyridin-3-yl)acrylamide] | >100 | >100 | >100 | >100 | >100 | >100
5 | C=CC(=O)N1CCCC(c2cc3c(cn2)CN(c2c(F)c(OC)cc(OC)c2F)C(=O)C32CC2)C1 (stereo not drawn) [Example 8, 6′-(1-acryloylpiperidin-3-yl)-2′-(2,6-difluoro-3,5-dimethoxyphenyl)-1′H-spiro[cyclopropane-1,4′-[2,7]naphthyridin]-3′(2′H)-one] | >5 | >1 | >1 | >10 | >2 | >2
6 | C=CC(=O)Nc1cc(-c2cc3c(cn2)CN(c2c(F)c(OC)cc(OC)c2F)C(=O)C32CC2)cc(N2CCOCC2)c1 [Example 10, N-{3-[2′-(2,6-difluoro-3,5-dimethoxyphenyl)-3′-oxo-2′,3′-dihydro-1′H-spiro[cyclopropane-1,4′-[2,7]naphthyridin]-6′-yl]-5-morpholin-4-ylphenyl}acrylamide] | >100 | >100 | >100 | >100 | >100 | >100
7 | C=CC(=O)Nc1cc(CN2CCOCC2)cc(-c2cc3c(cn2)CN(c2c(F)c(OC)cc(OC)c2F)C(=O)C32CC2)c1 [Example 11, N-[3-[2′-(2,6-difluoro-3,5-dimethoxyphenyl)-3′-oxo-2′,3′-dihydro-1′H-spiro[cyclopropane-1,4′-[2,7]naphthyridin]-6′-yl]-5-(morpholin-4-ylmethyl)phenyl]acrylamide] | >100 | >100 | >100 | >100 | >100 | >100
8 | C=CC(=O)Nc1cc(-c2cc3c(cn2)CN(c2c(F)c(OC)cc(OC)c2F)C(=O)C32CC2)ccc1CN1CCOCC1 [Example 12, N-(5-(2′-(2,6-difluoro-3,5-dimethoxyphenyl)-3′-oxo-2′,3′-dihydro-1′H-spiro[cyclopropane-1,4′-[2,7]naphthyridine]-6′-yl)-2-(morpholinomethyl)phenyl)acrylamide] | >10 | >1 | >1 | >100 | >25 | >10
9 | C=CC(=O)Nc1cnn(C2CCOCC2)c1-c1cc2c(cn1)CN(c1c(F)c(OC)cc(OC)c1F)C(=O)C21CC1 [Example 18, N-(5-(2′-(2,6-difluoro-3,5-dimethoxyphenyl)-3′-oxo-2′,3′-dihydro-1′H-spiro[cyclopropane-1,4′-[2,7]naphthyridine]-6′-yl)-1-(tetrahydro-2H-pyran-4-yl)-1H-pyrazol-4-yl)acrylamide] |  |  |  | >100 | >50 | >100

Results, then the compound that gave them:

Row | FGFR1/FGFR4 [1] | FGFR2/FGFR4 [1] | FGFR3/FGFR4 [1] | FGFR1/FGFR4 (pre-incubated for 4 hours) | FGFR2/FGFR4 (pre-incubated for 4 hours) | FGFR3/FGFR4 (pre-incubated for 4 hours) | SMILES
10 |  |  |  | >100 | >100 | >100 | C=CC(=O)Nc1cn[nH]c1-c1cc2c(cn1)CN(c1c(F)c(OC)cc(OC)c1F)C(=O)C21CC1 [Example 14, N-(5-(2′-(2,6-difluoro-3,5-dimethoxyphenyl)-3′-oxo-2′,3′-dihydro-1′H-spiro[cyclopropane-1,4′-[2,7]naphthyridine]-6′-yl)-1H-pyrazol-4-yl)acrylamide]
11 |  |  |  | >100 | >100 | >100 | C=CC(=O)Nc1cnn(CCOC)c1-c1cc2c(cn1)CN(c1c(F)c(OC)cc(OC)c1F)C(=O)C21CC1 [Example 15, N-(5-(2′-(2,6-difluoro-3,5-dimethoxyphenyl)-3′-oxo-2′,3′-dihydro-1′H-spiro[cyclopropane-1,4′-[2,7]naphthyridine]-6′-yl)-1-(2-methoxyethyl)-1H-pyrazol-4-yl)acrylamide]
12 |  |  |  | >100 | >100 | >100 | C=CC(=O)Nc1cnn(CCOCC)c1-c1cc2c(cn1)CN(c1c(F)c(OC)cc(OC)c1F)C(=O)C21CC1 [Example 16, N-(5-(2′-(2,6-difluoro-3,5-dimethoxyphenyl)-3′-oxo-2′,3′-dihydro-1′H-spiro[cyclopropane-1,4′-[2,7]naphthyridine]-6′-yl)-1-(2-ethoxyethyl)-1H-pyrazol-4-yl)acrylamide]
13 |  |  |  | >100 | >100 | >100 | C=CC(=O)Nc1cnn(CCO)c1-c1cc2c(cn1)CN(c1c(F)c(OC)cc(OC)c1F)C(=O)C21CC1 [Example 17, N-(5-(2′-(2,6-difluoro-3,5-dimethoxyphenyl)-3′-oxo-2′,3′-dihydro-1′H-spiro[cyclopropane-1,4′-[2,7]naphthyridine]-6′-yl)-1-(2-hydroxyethyl)-1H-pyrazol-4-yl)acrylamide]
14 |  |  |  | >100 | >100 | >100 | C=CC(=O)Nc1cnn(CCN2CCOCC2)c1-c1cc2c(cn1)CN(c1c(F)c(OC)cc(OC)c1F)C(=O)C21CC1 [Example 19, N-(5-(2′-(2,6-difluoro-3,5-dimethoxyphenyl)-3′-oxo-2′,3′-dihydro-1′H-spiro[cyclopropane-1,4′-[2,7]naphthyridine]-6′-yl)-1-(2-morpholinoethyl)-1H-pyrazol-4-yl)acrylamide]
15 |  |  |  | >100 | >50 | >100 | C=CC(=O)Nc1cnn(Cc2ccncc2)c1-c1cc2c(cn1)CN(c1c(F)c(OC)cc(OC)c1F)C(=O)C21CC1 [Example 21, N-(5-(2′-(2,6-difluoro-3,5-dimethoxyphenyl)-3′-oxo-2′,3′-dihydro-1′H-spiro[cyclopropane-1,4′-[2,7]naphthyridine]-6′-yl)-1-(pyridin-4-ylmethyl)-1H-pyrazol-4-yl)acrylamide]
16 |  |  |  | >100 | >100 | >100 | C=CC(=O)Nc1cnn(Cc2cccnc2)c1-c1cc2c(cn1)CN(c1c(F)c(OC)cc(OC)c1F)C(=O)C21CC1 [Example 22, N-(5-(2′-(2,6-difluoro-3,5-dimethoxyphenyl)-3′-oxo-2′,3′-dihydro-1′H-spiro[cyclopropane-1,4′-[2,7]naphthyridine]-6′-yl)-1-(pyridin-3-ylmethyl)-1H-pyrazol-4-yl)acrylamide]
17 |  |  |  | >100 | >100 | >100 | C=CC(=O)Nc1cnn(Cc2ncn(C)n2)c1-c1cc2c(cn1)CN(c1c(F)c(OC)cc(OC)c1F)C(=O)C21CC1 [Example 23, N-(5-(2′-(2,6-difluoro-3,5-dimethoxyphenyl)-3′-oxo-2′,3′-dihydro-1′H-spiro[cyclopropane-1,4′-[2,7]naphthyridine]-6′-yl)-1-((1-methyl-1H-1,2,4-triazol-3-yl)methyl)-1H-pyrazol-4-yl)acrylamide]
18 |  |  |  | >100 | >100 | >100 | C=CC(=O)Nc1cnn(CC2CCOCC2)c1-c1cc2c(cn1)CN(c1c(F)c(OC)cc(OC)c1F)C(=O)C21CC1 [Example 24, N-(5-(2′-(2,6-difluoro-3,5-dimethoxyphenyl)-3′-oxo-2′,3′-dihydro-1′H-spiro[cyclopropane-1,4′-[2,7]naphthyridine]-6′-yl)-1-((tetrahydro-2H-pyran-4-yl)methyl)-1H-pyrazol-4-yl)acrylamide]
19 |  |  |  | >100 | >100 | >100 | C=CC(=O)Nc1cnn(Cc2ccon2)c1-c1cc2c(cn1)CN(c1c(F)c(OC)cc(OC)c1F)C(=O)C21CC1 [Example 25, N-(5-(2′-(2,6-difluoro-3,5-dimethoxyphenyl)-3′-oxo-2′,3′-dihydro-1′H-spiro[cyclopropane-1,4′-[2,7]naphthyridine]-6′-yl)-1-(isoxazol-3-ylmethyl)-1H-pyrazol-4-yl)acrylamide]
20 |  |  |  | >100 | >50 | >100 | C=CC(=O)Nc1cnn(Cc2ccnn2C)c1-c1cc2c(cn1)CN(c1c(F)c(OC)cc(OC)c1F)C(=O)C21CC1 [Example 26, N-(5-(2′-(2,6-difluoro-3,5-dimethoxyphenyl)-3′-oxo-2′,3′-dihydro-1′H-spiro[cyclopropane-1,4′-[2,7]naphthyridine]-6′-yl)-1-((1-methyl-1H-pyrazol-5-yl)methyl)-1H-pyrazol-4-yl)acrylamide]
